Molecular target: Receptor tyrosine-protein kinase erbB-2 (Homo sapiens, UniProt P04626)
Experiment: Inhibition of wild type human GST-tagged HER2 (676 to end residues) expressed in baculovirus infected Sf9 cells incubated for 30 mins in presence of ATP by HTRF analysis
Details: not given

Sequence of Receptor tyrosine-protein kinase erbB-2 (P04626 whole entry): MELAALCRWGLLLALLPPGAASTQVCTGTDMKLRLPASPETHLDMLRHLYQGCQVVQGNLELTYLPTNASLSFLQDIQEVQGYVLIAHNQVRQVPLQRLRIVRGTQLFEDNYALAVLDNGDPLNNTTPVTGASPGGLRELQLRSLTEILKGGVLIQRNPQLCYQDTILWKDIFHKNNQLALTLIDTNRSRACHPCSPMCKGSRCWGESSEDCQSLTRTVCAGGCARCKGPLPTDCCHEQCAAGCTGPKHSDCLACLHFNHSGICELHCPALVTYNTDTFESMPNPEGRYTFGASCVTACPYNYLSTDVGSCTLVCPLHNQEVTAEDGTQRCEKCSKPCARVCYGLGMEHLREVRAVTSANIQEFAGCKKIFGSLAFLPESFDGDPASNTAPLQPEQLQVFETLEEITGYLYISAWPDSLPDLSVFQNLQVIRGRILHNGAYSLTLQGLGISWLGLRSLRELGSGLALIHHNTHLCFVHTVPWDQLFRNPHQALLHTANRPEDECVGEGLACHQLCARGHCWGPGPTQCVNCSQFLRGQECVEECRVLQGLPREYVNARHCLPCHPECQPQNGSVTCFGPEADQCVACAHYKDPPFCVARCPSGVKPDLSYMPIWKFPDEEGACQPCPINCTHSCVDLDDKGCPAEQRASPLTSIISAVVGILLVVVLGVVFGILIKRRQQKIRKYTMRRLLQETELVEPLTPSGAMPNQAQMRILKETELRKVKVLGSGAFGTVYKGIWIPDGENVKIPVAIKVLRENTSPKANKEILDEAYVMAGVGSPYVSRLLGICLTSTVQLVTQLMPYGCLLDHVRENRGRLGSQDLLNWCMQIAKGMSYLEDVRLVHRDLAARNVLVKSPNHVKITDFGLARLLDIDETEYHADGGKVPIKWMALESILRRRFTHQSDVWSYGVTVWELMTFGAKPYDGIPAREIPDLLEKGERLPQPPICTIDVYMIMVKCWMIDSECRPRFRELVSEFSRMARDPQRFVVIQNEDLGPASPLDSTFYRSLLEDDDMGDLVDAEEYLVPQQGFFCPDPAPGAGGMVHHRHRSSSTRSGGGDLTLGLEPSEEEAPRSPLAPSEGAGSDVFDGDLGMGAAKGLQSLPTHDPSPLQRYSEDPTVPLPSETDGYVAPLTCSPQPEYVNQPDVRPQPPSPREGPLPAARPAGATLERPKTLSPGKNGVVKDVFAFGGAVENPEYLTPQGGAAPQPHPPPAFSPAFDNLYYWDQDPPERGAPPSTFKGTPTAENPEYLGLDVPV

Row | Compound | IC50 [nM]
1 | Cc1cc(Nc2ncnc3ccc(NC(=O)/C=C/CN(C)C)cc23)ccc1Oc1cc2nncn2cn1 | 2.85
2 | Cc1cc(Nc2ncnc3cc(O)c(NC(=O)/C=C/[C@H]4CCCN4C)cc23)ccc1Oc1cnc2ccnn2c1 | 2.41
3 | COCC(=O)NC/C=C/c1ccc2ncnc(Nc3ccc(Oc4cc5nncn5cn4)c(C)c3)c2c1 | 2.55

Now those with a lower IC50, led by results:

Row | IC50 [nM] | Compound
4 | 1.93 | C=CC(=O)Nc1cc2c(Nc3ccc(Oc4cc5nncn5cn4)c(C)c3)ncnc2cc1OCC
5 | 1.06 | Cc1cc(Nc2ncnc3cc(O)c(NC(=O)/C=C/[C@H]4CCCN4C)cc23)ccc1Oc1cc2nccn2cn1
6 | 1.7 | Cc1cc(Nc2ncnc3cc(O)c(NC(=O)/C=C/[C@H]4CCCN4C)cc23)ccc1Oc1ccn2ccnc2c1

System: BT-474
Experiment: Antiproliferative activity against human BT-474 cells assessed as inhibition of cell growth incubated for 72 hrs by Celltiter-Glo assay
Format: functional, cell-based
Details: BT-474, 72 h

Row | Compound | IC50 [nM]
7 | Cc1cc(Nc2ncnc3ccc(NC(=O)/C=C/CN(C)C)cc23)ccc1Oc1cc2nncn2cn1 | 8.05
8 | Cc1cc(Nc2ncnc3cc(O)c(NC(=O)/C=C/[C@H]4CCCN4C)cc23)ccc1Oc1cnc2ccnn2c1 | 3.11
9 | COCC(=O)NC/C=C/c1ccc2ncnc(Nc3ccc(Oc4cc5nncn5cn4)c(C)c3)c2c1 | 50

More lines, now with the values ahead:

Row | IC50 [nM] | Compound
10 | 4.69 | C=CC(=O)Nc1cc2c(Nc3ccc(Oc4cc5nncn5cn4)c(C)c3)ncnc2cc1OCC
11 | 5.59 | Cc1cc(Nc2ncnc3cc(O)c(NC(=O)/C=C/[C@H]4CCCN4C)cc23)ccc1Oc1cc2nccn2cn1
12 | 4.63 | Cc1cc(Nc2ncnc3cc(O)c(NC(=O)/C=C/[C@H]4CCCN4C)cc23)ccc1Oc1ccn2ccnc2c1

System: NCI-N87
Experiment: Antiproliferative activity against human NCI-N87 cells assessed as inhibition of cell growth incubated for 72 hrs by Celltiter-Glo assay
Format: functional, cell-based
Details: NCI-N87, 72 h

Row | Compound | IC50 [nM]
13 | C=CC(=O)Nc1cc2c(Nc3ccc(Oc4cc5nncn5cn4)c(C)c3)ncnc2cc1OCC | 51.9
14 | Cc1cc(Nc2ncnc3ccc(NC(=O)/C=C/CN(C)C)cc23)ccc1Oc1cc2nncn2cn1 | 11.7
15 | Cc1cc(Nc2ncnc3cc(O)c(NC(=O)/C=C/[C@H]4CCCN4C)cc23)ccc1Oc1cnc2ccnn2c1 | 1.9
16 | Cc1cc(Nc2ncnc3cc(O)c(NC(=O)/C=C/[C@H]4CCCN4C)cc23)ccc1Oc1cc2nccn2cn1 | 41.7
17 | Cc1cc(Nc2ncnc3cc(O)c(NC(=O)/C=C/[C@H]4CCCN4C)cc23)ccc1Oc1ccn2ccnc2c1 | 4.55
18 | COCC(=O)NC/C=C/c1ccc2ncnc(Nc3ccc(Oc4cc5nncn5cn4)c(C)c3)c2c1 | 80.7

Molecular target: Epidermal growth factor receptor (Homo sapiens, UniProt P00533)
Sequence (P00533 whole entry, the tested form may be a part): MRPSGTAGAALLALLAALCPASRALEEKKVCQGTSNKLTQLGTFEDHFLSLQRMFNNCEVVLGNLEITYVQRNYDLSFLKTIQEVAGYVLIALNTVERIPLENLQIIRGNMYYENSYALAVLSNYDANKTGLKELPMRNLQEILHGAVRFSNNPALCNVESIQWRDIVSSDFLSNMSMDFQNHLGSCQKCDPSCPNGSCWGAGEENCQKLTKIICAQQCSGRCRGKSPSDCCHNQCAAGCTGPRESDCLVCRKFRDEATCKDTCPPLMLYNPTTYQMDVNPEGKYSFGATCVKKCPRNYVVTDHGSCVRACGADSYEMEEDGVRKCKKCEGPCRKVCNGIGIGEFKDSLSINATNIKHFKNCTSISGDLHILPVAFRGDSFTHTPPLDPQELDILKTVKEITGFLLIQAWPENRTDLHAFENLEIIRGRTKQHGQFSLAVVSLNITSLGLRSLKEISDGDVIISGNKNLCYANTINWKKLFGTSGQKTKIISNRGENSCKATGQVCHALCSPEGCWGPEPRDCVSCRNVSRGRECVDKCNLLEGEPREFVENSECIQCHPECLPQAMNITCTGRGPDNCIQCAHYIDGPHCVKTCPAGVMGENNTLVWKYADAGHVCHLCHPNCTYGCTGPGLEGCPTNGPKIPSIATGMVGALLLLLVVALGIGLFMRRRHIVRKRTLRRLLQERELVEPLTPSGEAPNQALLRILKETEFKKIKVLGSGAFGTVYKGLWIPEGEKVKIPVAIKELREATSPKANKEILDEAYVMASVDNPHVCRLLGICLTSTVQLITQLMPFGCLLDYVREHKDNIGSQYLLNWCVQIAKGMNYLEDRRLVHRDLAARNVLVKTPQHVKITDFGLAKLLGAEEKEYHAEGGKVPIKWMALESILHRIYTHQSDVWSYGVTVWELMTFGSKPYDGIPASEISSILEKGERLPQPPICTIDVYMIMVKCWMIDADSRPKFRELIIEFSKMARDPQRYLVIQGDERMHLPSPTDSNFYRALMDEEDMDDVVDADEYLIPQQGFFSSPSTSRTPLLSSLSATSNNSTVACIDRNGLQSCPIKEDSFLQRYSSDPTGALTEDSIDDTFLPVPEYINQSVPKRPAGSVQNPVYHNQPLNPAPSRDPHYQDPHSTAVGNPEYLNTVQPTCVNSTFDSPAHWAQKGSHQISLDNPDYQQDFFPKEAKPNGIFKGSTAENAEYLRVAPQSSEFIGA
Experiment: Inhibition of wild type human N-terminal GST tagged EGFR (669 to 1210 residues) expressed in Sf21 insect cells incubated for 30 mins in presence of ATP by HTRF analysis
Details: not given

Row | Compound | IC50 [nM]
19 | Cc1cc(Nc2ncnc3ccc(NC(=O)/C=C/CN(C)C)cc23)ccc1Oc1cc2nncn2cn1 | 2.13
20 | Cc1cc(Nc2ncnc3cc(O)c(NC(=O)/C=C/[C@H]4CCCN4C)cc23)ccc1Oc1cnc2ccnn2c1 | 1.03
21 | COCC(=O)NC/C=C/c1ccc2ncnc(Nc3ccc(Oc4cc5nncn5cn4)c(C)c3)c2c1 | 110

Next, values leading:

Row | IC50 [nM] | Compound
22 | 1.47 | C=CC(=O)Nc1cc2c(Nc3ccc(Oc4cc5nncn5cn4)c(C)c3)ncnc2cc1OCC
23 | 1.11 | Cc1cc(Nc2ncnc3cc(O)c(NC(=O)/C=C/[C@H]4CCCN4C)cc23)ccc1Oc1cc2nccn2cn1
24 | 2.31 | Cc1cc(Nc2ncnc3cc(O)c(NC(=O)/C=C/[C@H]4CCCN4C)cc23)ccc1Oc1ccn2ccnc2c1

Source: ChEMBL document CHEMBL5154811, “Discovery of SPH5030, a Selective, Potent, and Irreversible Tyrosine Kinase Inhibitor for HER2-Amplified and HER2-Mutant Cancer Treatment” (J Med Chem, 2022)
